Data published in patent publication US6355799B1, “Substituted benzene compounds, process for their preparation, and herbicidal and defoliant compositions containing them” (ISK Americas Incorporated, priority 1997, dated 2002).

What was measured:
Type in all cases: in vivo
[1] = system: redroot pigweed (Amaranthus retroflexus, AMARE); experiment: Pre-emerge test, greenhouse herbicide activity screening; conditions: pre-emerge; for Pre-emerge Herbicidal Activity AMARE (phytotoxicity rating, scale 0-100): rated 14 days after application, 0 = no damage, 100 = complete death
Method in brief: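 Compounds in acetone were track-sprayed at 187 l/ha, 15–1000 g ai/ha, onto sandy loam pots. Pre-emerge seeds were sown one day before spraying, with surface watering afterwards. Post-emerge plants were at the 2–3 leaf stage and sprayed with 0.25% v/v non-ionic surfactant. Injury was rated 0–100 at 14 days.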

[2] = system: barnyardgrass (Echinochloa crus-galli, ECHCG); experiment: as above; conditions: pre-emerge; for Pre-emerge Herbicidal Activity ECHCG (phytotoxicity rating, scale 0-100): rated 14 days after application, 0 = no damage, 100 = complete death
Method in brief: (§1)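 Sandy loam pots; pre-emerge: sown 1 d pre-spray, surface-watered after, then bottom-watered. Post-emerge: sown 8–21 d before, 2–3 leaf stage, + 0.25% v/v NIS, bottom-watered. Acetone, 187 l/ha track spray, 15–1000 g ai/ha. 0–100 injury score, day 14.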

[3] = system: green foxtail (Setaria viridis, SETVI); experiment: as above; conditions: pre-emerge; for Pre-emerge Herbicidal Activity SETVI (phytotoxicity rating, scale 0-100): rated 14 days after application, 0 = no damage, 100 = complete death
Method in brief: as §1

[4] = system: ivyleaf morningglory (Ipomoea hederacea, IPOHE); experiment: as above; conditions: pre-emerge; for Pre-emerge Herbicidal Activity IPOHE (phytotoxicity rating, scale 0-100): rated 14 days after application, 0 = no damage, 100 = complete death
Method in brief: as §1

[5] = system: johnsongrass (Sorghum halepense, SORHA); experiment: as above; conditions: pre-emerge; for Pre-emerge Herbicidal Activity SORHA (phytotoxicity rating, scale 0-100): rated 14 days after application, 0 = no damage, 100 = complete death
Method in brief: as §1

[6] = system: lambsquarters (Chenopodium album, CHEAL); experiment: as above; conditions: pre-emerge; for Pre-emerge Herbicidal Activity CHEAL (phytotoxicity rating, scale 0-100): rated 14 days after application, 0 = no damage, 100 = complete death
Method in brief: as §1

[7] = system: large crabgrass (Digitaria sanguinalis, DIGSA); experiment: as above; conditions: pre-emerge; for Pre-emerge Herbicidal Activity DIGSA (phytotoxicity rating, scale 0-100): rated 14 days after application, 0 = no damage, 100 = complete death
Method in brief: as §1

[8] = system: sicklepod (Cassia obtusifolia, CASOB); experiment: as above; conditions: pre-emerge; for Pre-emerge Herbicidal Activity CASOB (phytotoxicity rating, scale 0-100): rated 14 days after application, 0 = no damage, 100 = complete death
Method in brief: as §1

[9] = system: velvetleaf (Abutilon theophrasti, ABUTH); experiment: as above; conditions: pre-emerge; for Pre-emerge Herbicidal Activity ABUTH (phytotoxicity rating, scale 0-100): rated 14 days after application, 0 = no damage, 100 = complete death
Method in brief: as §1

[10] = system: green foxtail (Setaria viridis, SETVI); experiment: Post-emerge test, greenhouse herbicide activity screening; conditions: Setaria viridis, post-emergence, 336 h, read-out: Post-emerge Herbicidal Activity SETVI; for pest or weed control at 63 g/ha: 63 g ai/ha; for pest or weed control at 250 g/ha: 250 g ai/ha
Method in brief: (§2)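 Compounds in acetone were track-sprayed at 15-1000 g ai/ha (187 l/ha) on sandy loam pots: pre-emerge one day after seeding, post-emerge at 2-3 leaf stage with 0.25% v/v non-ionic surfactant. Phytotoxicity was rated 14 days later on a 0 (no damage) to 100 (complete death) scale.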

[11] = system: ivyleaf morningglory (Ipomoea hederacea, IPOHE); experiment: as above; conditions: Ipomoea, post-emergence, 336 h, read-out: Post-emerge Herbicidal Activity IPOHE; for pest or weed control at 63 g/ha: 63 g ai/ha; for pest or weed control at 250 g/ha: 250 g ai/ha
Method in brief: as §2

[12] = system: johnsongrass (Sorghum halepense, SORHA); experiment: as above; conditions: Sorghum halepense, post-emergence, 336 h, read-out: Post-emerge Herbicidal Activity SORHA; for pest or weed control at 63 g/ha: 63 g ai/ha; for pest or weed control at 250 g/ha: 250 g ai/ha
Method in brief: as §2

[13] = system: large crabgrass (Digitaria sanguinalis, DIGSA); experiment: as above; conditions: Digitaria sanguinalis, post-emergence, 336 h, read-out: Post-emerge Herbicidal Activity DIGSA; for pest or weed control at 63 g/ha: 63 g ai/ha; for pest or weed control at 250 g/ha: 250 g ai/ha
Method in brief: as §2

[14] = post-emerge, phytotoxicity rating 0-100 at 14 days after application
[15] = phytotoxicity rating 0-100 (0 no damage, 100 complete death), 14 days after application

Question: For `COc1c(Cl)cc(F)c(-c2nn(C)c(C(F)(F)F)c2Cl)c1N` [Compound 7-2, 4-chloro-3-(2-amino-4-chloro-6-fluoro3-metoxyphenyl)-1-methyl-5-trifluoromethyl-1H-pyrazole], which pest or weed control at 63 g/ha ([1]; Amaranthus retroflexus, pre-emergence, 336 h, rate 63 g ai/ha, phytotoxicity rating 0-100 at 14 days after application, read-out: Pre-emerge Herbicidal Activity AMARE) is on record?
Answer: 100%

Question: And the pest or weed control at 250 g/ha ([1]; Amaranthus retroflexus, pre-emergence, 336 h, rate 250 g ai/ha, phytotoxicity rating 0-100 at 14 days after application, read-out: Pre-emerge Herbicidal Activity AMARE)?
Answer: 100%

Question: What about the pest or weed control at 63 g/ha ([2]; Echinochloa crus-galli, pre-emergence, 336 h, rate 63 g ai/ha, phytotoxicity rating 0-100 at 14 days after application, read-out: Pre-emerge Herbicidal Activity ECHCG) of the same molecule?
Answer: 70%

Question: And the pest or weed control at 250 g/ha ([2]; Echinochloa crus-galli, pre-emergence, 336 h, rate 250 g ai/ha, phytotoxicity rating 0-100 at 14 days after application, read-out: Pre-emerge Herbicidal Activity ECHCG)?
Answer: 100%

Question: What about the pest or weed control at 63 g/ha ([3]; Setaria viridis, pre-emergence, 336 h, rate 63 g ai/ha, phytotoxicity rating 0-100 at 14 days after application, read-out: Pre-emerge Herbicidal Activity SETVI) of the same molecule?
Answer: 95%

Question: What about the pest or weed control at 250 g/ha ([3]; Setaria viridis, pre-emergence, 336 h, rate 250 g ai/ha, phytotoxicity rating 0-100 at 14 days after application, read-out: Pre-emerge Herbicidal Activity SETVI) of the same molecule?
Answer: 100%

Question: What about the pest or weed control at 63 g/ha ([4]; Ipomoea, pre-emergence, 336 h, rate 63 g ai/ha, phytotoxicity rating 0-100 at 14 days after application, read-out: Pre-emerge Herbicidal Activity IPOHE) of the same molecule?
Answer: 60%

Question: What about the pest or weed control at 250 g/ha ([4]; Ipomoea, pre-emergence, 336 h, rate 250 g ai/ha, phytotoxicity rating 0-100 at 14 days after application, read-out: Pre-emerge Herbicidal Activity IPOHE) of the same molecule?
Answer: 80%

Question: What about the pest or weed control at 63 g/ha ([5]; Sorghum halepense, pre-emergence, 336 h, rate 63 g ai/ha, phytotoxicity rating 0-100 at 14 days after application, read-out: Pre-emerge Herbicidal Activity SORHA) of the same molecule?
Answer: 95%

Question: What about the pest or weed control at 250 g/ha ([5]; Sorghum halepense, pre-emergence, 336 h, rate 250 g ai/ha, phytotoxicity rating 0-100 at 14 days after application, read-out: Pre-emerge Herbicidal Activity SORHA) of the same molecule?
Answer: 100%

Question: And the pest or weed control at 63 g/ha ([6]; Chenopodium album, pre-emergence, 336 h, rate 63 g ai/ha, phytotoxicity rating 0-100 at 14 days after application, read-out: Pre-emerge Herbicidal Activity CHEAL)?
Answer: 100%

Question: And the pest or weed control at 250 g/ha ([6]; Chenopodium album, pre-emergence, 336 h, rate 250 g ai/ha, phytotoxicity rating 0-100 at 14 days after application, read-out: Pre-emerge Herbicidal Activity CHEAL)?
Answer: 100%

Question: What about the pest or weed control at 63 g/ha ([7]; Digitaria sanguinalis, pre-emergence, 336 h, rate 63 g ai/ha, phytotoxicity rating 0-100 at 14 days after application, read-out: Pre-emerge Herbicidal Activity DIGSA) of the same molecule?
Answer: 100%

Question: And the pest or weed control at 250 g/ha ([7]; Digitaria sanguinalis, pre-emergence, 336 h, rate 250 g ai/ha, phytotoxicity rating 0-100 at 14 days after application, read-out: Pre-emerge Herbicidal Activity DIGSA)?
Answer: 100%

Question: What about the pest or weed control at 63 g/ha ([8]; Senna obtusifolia, pre-emergence, 336 h, rate 63 g ai/ha, phytotoxicity rating 0-100 at 14 days after application, read-out: Pre-emerge Herbicidal Activity CASOB) of the same molecule?
Answer: 30%

Question: What about the pest or weed control at 250 g/ha ([8]; Senna obtusifolia, pre-emergence, 336 h, rate 250 g ai/ha, phytotoxicity rating 0-100 at 14 days after application, read-out: Pre-emerge Herbicidal Activity CASOB) of the same molecule?
Answer: 30%

Question: What about the pest or weed control at 63 g/ha ([9]; Abutilon theophrasti, pre-emergence, 336 h, rate 63 g ai/ha, phytotoxicity rating 0-100 at 14 days after application, read-out: Pre-emerge Herbicidal Activity ABUTH) of the same molecule?
Answer: 95%

Question: And the pest or weed control at 250 g/ha ([9]; Abutilon theophrasti, pre-emergence, 336 h, rate 250 g ai/ha, phytotoxicity rating 0-100 at 14 days after application, read-out: Pre-emerge Herbicidal Activity ABUTH)?
Answer: 100%

Question: What about the pest or weed control at 63 g/ha [10, 14] of the same molecule?
Answer: 20%

Question: What about the pest or weed control at 250 g/ha [10, 14] of the same molecule?
Answer: 50%

Question: And the pest or weed control at 63 g/ha [11, 14]?
Answer: 80%

Question: And the pest or weed control at 250 g/ha [11, 14]?
Answer: 100%

Question: What about the pest or weed control at 63 g/ha [12, 14] of the same molecule?
Answer: 20%

Question: What about the pest or weed control at 250 g/ha [12, 14] of the same molecule?
Answer: 40%

Question: And the pest or weed control at 63 g/ha [13, 14]?
Answer: 20%

Question: What about the pest or weed control at 250 g/ha [13, 14] of the same molecule?
Answer: 70%

Question: `COc1c(Cl)cc(F)c(-n2c(=O)cc(C(F)(F)F)n(C)c2=O)c1N(C(C)=O)C(C)=O` [Compound 2-2, 3-(4-chloro-2-diacetylamino-6-fluoro-3-methoxyphenyl)-1-methyl-6-trifluoromethyl-2,4(1H, 3H)-pyrimidinedione] was tested. Which “Pre-emerge Herbicidal Activity AMARE (phytotoxicity rating, scale 0-100)” value ([1]; 63 g ai/ha) did it give?
Answer: 100

Question: And the “Pre-emerge Herbicidal Activity AMARE (phytotoxicity rating, scale 0-100)” value ([1]; 250 g ai/ha)?
Answer: 100

Question: What about the “Pre-emerge Herbicidal Activity ECHCG (phytotoxicity rating, scale 0-100)” value ([2]; 63 g ai/ha) of the same molecule?
Answer: 30

Question: What about the “Pre-emerge Herbicidal Activity ECHCG (phytotoxicity rating, scale 0-100)” value ([2]; 250 g ai/ha) of the same molecule?
Answer: 90

Question: And the “Pre-emerge Herbicidal Activity SETVI (phytotoxicity rating, scale 0-100)” value ([3]; 63 g ai/ha)?
Answer: 90

Question: And the “Pre-emerge Herbicidal Activity SETVI (phytotoxicity rating, scale 0-100)” value ([3]; 250 g ai/ha)?
Answer: 100

Question: And the “Pre-emerge Herbicidal Activity IPOHE (phytotoxicity rating, scale 0-100)” value ([4]; 63 g ai/ha)?
Answer: 90

Question: What about the “Pre-emerge Herbicidal Activity IPOHE (phytotoxicity rating, scale 0-100)” value ([4]; 250 g ai/ha) of the same molecule?
Answer: 100

Question: And the “Pre-emerge Herbicidal Activity SORHA (phytotoxicity rating, scale 0-100)” value ([5]; 63 g ai/ha)?
Answer: 60

Question: What about the “Pre-emerge Herbicidal Activity SORHA (phytotoxicity rating, scale 0-100)” value ([5]; 250 g ai/ha) of the same molecule?
Answer: 90

Question: What about the “Pre-emerge Herbicidal Activity CHEAL (phytotoxicity rating, scale 0-100)” value ([6]; 63 g ai/ha) of the same molecule?
Answer: 100

Question: And the “Pre-emerge Herbicidal Activity CHEAL (phytotoxicity rating, scale 0-100)” value ([6]; 250 g ai/ha)?
Answer: 100

Question: And the “Pre-emerge Herbicidal Activity DIGSA (phytotoxicity rating, scale 0-100)” value ([7]; 63 g ai/ha)?
Answer: 90

Question: What about the “Pre-emerge Herbicidal Activity DIGSA (phytotoxicity rating, scale 0-100)” value ([7]; 250 g ai/ha) of the same molecule?
Answer: 95

Question: What about the “Pre-emerge Herbicidal Activity CASOB (phytotoxicity rating, scale 0-100)” value ([8]; 63 g ai/ha) of the same molecule?
Answer: 60

Question: And the “Pre-emerge Herbicidal Activity CASOB (phytotoxicity rating, scale 0-100)” value ([8]; 250 g ai/ha)?
Answer: 90

Question: What about the “Pre-emerge Herbicidal Activity ABUTH (phytotoxicity rating, scale 0-100)” value ([9]; 63 g ai/ha) of the same molecule?
Answer: 100

Question: What about the “Pre-emerge Herbicidal Activity ABUTH (phytotoxicity rating, scale 0-100)” value ([9]; 250 g ai/ha) of the same molecule?
Answer: 100

Question: And the pest or weed control at 63 g/ha [10, 15]?
Answer: 0%

Question: What about the pest or weed control at 250 g/ha [10, 15] of the same molecule?
Answer: 30%

Question: What about the pest or weed control at 63 g/ha [11, 15] of the same molecule?
Answer: 95%

Question: What about the pest or weed control at 250 g/ha [11, 15] of the same molecule?
Answer: 100%

Question: And the pest or weed control at 63 g/ha [12, 15]?
Answer: 0%

Question: And the pest or weed control at 250 g/ha [12, 15]?
Answer: 50%

Question: And the pest or weed control at 63 g/ha [13, 15]?
Answer: 0%

Question: What about the pest or weed control at 250 g/ha [13, 15] of the same molecule?
Answer: 30%
